Experimental data taken from patent publication US10722505B2, “Substituted 2,4 diamino-quinoline as new anticancer agents” (GENOSCIENCE PHARMA, priority 2014, dated 2020).
Structures can show the parent of a compound that is named as a salt.

How the values were obtained:
[1] = tested on: LI1005 HCC patient derived cells; assay: CellTiter-Glo growth inhibition, HCC patient-derived cells LI1005; type: cell-based, human; settings: Homo sapiens; LI1005, 72 hours
Description: (§1) The patient derived Hepatocellular Carcinoma (HCC) cells were maintained in medium respectively described in table 15 containing 1% penicillin-streptomycin (Life Technologies, 15070-063), with a supplements for primary cell culture (PCS) containing hydrocortisone (50 nM), Epidermal Growth Factor (20 ng/ml), β-fibroblast Growth Factor (10 ng/ml), Heparin (2 μg/ml) ITS liquid media supplement (1×) and non-essential amino acid (NEAA, 0.01 mM, 1×). The primary cell were cultured in a humidified atmosphere (95% relative humidity) with 5% CO2 at 37° C.
(§2) The cell growth inhibition assay was performed as described previously in example 5 using the CellTiter-Glo® luminescent cell viability assay as described by the manufacturer (Promega, Ref G7571). The number of cells seeded per well (in 96-Well Flat Clear Bottom Black Polystyrene TC-Treated Microplates, Cat #3340, Corning®) is described in the table 16. A backseal black sticker (Cat #6005189, Perkin Elmer) was placed to the bottom of each plate before recording CellTiter-Glo® luminescence.
(§3) The experimental data are analyzed using a computer program, Graphpad Prism V 5.0 (GraphPad Software, Inc. La Jolla, Calif.) and EC50 values were determined as the dose of compound required to reduce absorbance values to 50% of the signal obtained for vehicle treated cell cultures and were a mean of at least three independent experiments.

ARPE-19 cell line = assay: CellTiter-Glo growth inhibition assay, ARPE-19; type: cell-based; settings: ARPE-19, human retinal pigmented epithelium, 72 h
Description: (§4) All cell lines were maintained in medium containing 1% penicillin-streptomycin (Dutscher, P06-07100) and 10% Fetal Bovine Serum (Gibco, W3387L) except 20% for KG-1 cell line and PBMC, and cultured at 37° C. with 5% CO2.
ARPE-19 cell line was cultured in DMEM:F12 medium (Dutscher, L0093).
(§5) Cell viability was measured using the CellTiter-Glo® luminescent cell viability assay as described by the manufacturer (Promega, Ref G7571) using an Infinite F200Pro luminometer (Tecan). Briefly, for adherent cells, cells were plated onto 96-well plates (white with clear bottom) in 90 μL of media per well and were allowed to grow overnight before the assay. For cells growing in suspension, cells were plated onto 96-well plates immediately before the assay.
(§6) Compounds were added at different concentrations to each well, and cell cultures were incubated for 72 h. Vehicle (H2O) was used as a control, and all compounds were tested in a constant percentage of H2O. After addition of 100 μL of CellTiter-Glo®, luminescence was measured using an Infinite F200Pro (Tecan). EC50 values were determined as the dose of compound required to reduce luminescent values to 50% of the signal obtained for untreated cell cultures. The experimental data were analyzed using a computer program, Graphpad Prism v5 (GraphPad Software, Inc. La Jolla, Calif.). […]

[2] = tested on: CPP30 liver metastatic CRC patient-derived cells; assay: CellTiter-Glo growth inhibition, liver metastatic CRC patient-derived cells CPP30; type: cell-based; settings: Homo sapiens; CPP30, 72 h
Description: (§7) Patient derived liver metastasis cells (CPP19, 30, 36 and CPP45—see table 1 for clinical descriptions) were maintained in complete DMEM (Gibco) with 10% FBS. Cells were obtained from biopsies provided by CHU-Caremeau (Nimes, France) within an approved protocol. Signed informed consents were obtained from patients prior to samples acquisition in accordance with all ethical and legal aspects. Tumors were washed, minced into fragments (<2 mm^3) and digested with liberase H (0.26 U/mL, Roche) resuspended in Accumax (Sigma-Aldrich). After 2 hours at 37° C., cell suspension was filtered through a […] to obtain a single cell suspension and plated in DMEM medium, supplemented with FBS, glutamine, antibiotics and non-essential aminoacids. When a monolayer of patient-derived tumor cells was formed, cells were detached using trypsin/EDTA and resuspended in DMEM with 10% FBS (for adherent cells) or defined M11 media (for sphere formation). Cells were cultured in a humidified atmosphere at 37° C. and 5% CO2.
(§8) Cells were plated at 10^4 cells per well in P96 well plates in DMEM with 10% FBS. After 24 hours, cells were treated with compound 2-3 and cell viability was assessed 72 h post-treatment by CellTiter-Glo® Luminescent Cell Viability Assay (Promega). EC50 were calculated using GraphPad Prism Software v6 (Graphpad Software, Inc La Jolla, Calif.). […]

[3] = tested on: LI1646 HCC patient derived cells; assay: CellTiter-Glo growth inhibition, HCC patient-derived cells LI1646; type: cell-based, human; settings: Homo sapiens; LI1646, 72 hours
Description: as §1, §2, §3

MDA-MB-231 cell line = assay: CellTiter-Glo growth inhibition assay, MDA-MB-231; type: cell-based; settings: Homo sapiens; MDA-MB-231, breast adenocarcinoma, 72 h
Description: as §4
HepG2, Huh7, HCT-116, MDA-MB-231 and A375 cell lines were cultured in Dulbecco's modified Eagle's medium (Dutscher, L0103).
as §5, §6

[4] = tested on: CPP19 liver metastatic CRC patient-derived cells; assay: CellTiter-Glo growth inhibition, liver metastatic CRC patient-derived cells CPP19; type: cell-based; settings: Homo sapiens; CPP19, 72 h
Description: as §7, §8

[5] = tested on: LI0801 HCC patient derived cells; assay: CellTiter-Glo growth inhibition, HCC patient-derived cells LI0801; type: cell-based, human; settings: Homo sapiens; LI0801, 72 hours
Description: as §1, §2, §3

[6] = tested on: LI1098 HCC patient derived cells; assay: CellTiter-Glo growth inhibition, HCC patient-derived cells LI1098; type: cell-based, human; settings: Homo sapiens; LI1098, 72 hours
Description: as §1, §2, §3

[7] = tested on: LI0612 HCC patient derived cells; assay: CellTiter-Glo growth inhibition, HCC patient-derived cells LI0612; type: cell-based, human; settings: Homo sapiens; LI0612, 72 hours
Description: as §1, §2, §3

[8] = tested on: LI0574 HCC patient derived cells; assay: CellTiter-Glo growth inhibition, HCC patient-derived cells LI0574; type: cell-based, human; settings: Homo sapiens; LI0574, 72 hours
Description: as §1, §2, §3

[9] = tested on: CPP45 liver metastatic CRC patient-derived cells; assay: CellTiter-Glo growth inhibition, liver metastatic CRC patient-derived cells CPP45; type: cell-based; settings: Homo sapiens; CPP45, 72 h
Description: as §7, §8

MOLM-14 cell line = assay: CellTiter-Glo cell viability / growth inhibition assay, MOLM-14 (Example 5); type: cell-based; settings: Homo sapiens, 72 h
Description: as §4
MOLM-14 cell line was maintained in MEM alpha medium (Gibco, 22561-021).
as §5
Compounds were added at different concentrations to each well, and cell cultures were incubated for 72 h. Vehicle (H2O) was used as a control, and all compounds were tested in a constant percentage of H2O. After addition of 100 μL of CellTiter-Glo®, luminescence was measured using an Infinite F200Pro (Tecan). EC50 values were determined as the dose of compound required to reduce luminescent values to 50% of the signal obtained for untreated cell cultures. The experimental data were analyzed using a computer program, Graphpad Prism v5 (GraphPad Software, Inc. La Jolla, Calif.).
All experiments were at least done in duplicate and repeated two independent times.

CC(C)(C)NC1CCN(c2cc(NCc3ccc(Cl)cc3)nc3ccccc23)CC1 [Compound 2-3, 2-(4-chlorobenzylamino)-4-(4-tert-butylaminopiperidin-1-yl)-quinoline hydrochloride salt]
EC50 [1]: 3200 nM
EC50 (ARPE-19 cell line): ~6900 nM
EC50 [2]: 1220 nM
EC50 [3]: 1400 nM
EC50 (MDA-MB-231 cell line): 2000 nM
EC50 [4]: 1880 nM
EC50 [5]: 2100 nM
EC50 [6]: 7000 nM
EC50 [7]: 6900 nM
EC50 [8]: 2400 nM
EC50 [9]: 1120 nM
viability at 4 µM (MOLM-14 cell line; MOLM-14, 4 μM): 31.8%
viability at 10 µM (MOLM-14 cell line; MOLM-14, 10 μM): 0.3%
EC50 (MOLM-14 cell line; MOLM-14, acute myeloïd leukemia, FLT3-ITD heterozygote+/−): 2200 nM
